Experimental findings from patent publication US6747027B1, “Thiol sulfonamide metalloprotease inhibitors” (Pharmacia Corporation, priority 1996, dated 2004) are described below.

Where only a bound is given, the exact number is not on record here.

Experiment [1] deals with T1, recombinant human MMP-13 (Homo sapiens, UniProt P45452).
T1 construct: made in house
Put plainly: In vitro metalloprotease inhibition, fluorogenic peptide assay (MMP-13). It is filed as biochemical. The following applies: recombinant human MMP-13, APMA activated; fluorogenic MCA peptide substrate 4 uM; pH 7.5, room temperature. How it is done:
(§1) Certain of the compounds prepared in the manner described in Examples 1 to 223 were tested for activity by an in vitro assay. Following the procedures of Knight et al., FEBS Lett. 296(3):263 (1992). Briefly, 4-aminophenylmercuric acetate (APMA) or trypsin activated MMPs were incubated with various concentrations of the inhibitor compound at room temperature for 5 minutes (0.02% 2-mercapto-ethanol added to buffer for thiol compounds with 5 minutes or overnight incubation). More specifically, recombinant human MMP-13 and MMP-1 enzymes were prepared in laboratories of the inventors' employer. MMP-13 was expressed in baculovirus as a proenzyme, and purified first over a heparin agarose column and then over a chelating zinc chloride column. The proenzyme was activated by APMA for use in the assay. MMP-1 expressed in transfected HT-1080 was provided by Dr. Howard Welgus of Washington University, St. Louis, Mo. The enzyme was also activated using APMA and was then purified over a hydroxamic acid column.
(§2) The enzyme substrate is a methoxycoumarin-containing polypeptide having the following sequence:
(§3) MCA-ProLeuGlyLeuDpaAlaArgNH^2, wherein MCA is methoxycoumarin and Dpa is 3-(2,4-dinitrophenyl)-L-2,3-diaminopropionyl alanine. This substrate is commercially available from Baychem as product M-1895.
(§4) The buffer used for assays contained 100 mM Tris-HCl, 100 mM NaCl, 10 mM CaCl2 and 0.05 percent polyethyleneglycol(23) lauryl ether at a pH value of 7.5. Assays were carried out at room temperature, and dimethyl sulfoxide (DMSO) at a final concentration of 1 percent was used to dissolve inhibitor compound.
(§5) The assayed inhibitor compound in DMSO/buffer solution was compared to an equal amount of DMSO/buffer with no inhibitor as control using microfluor™ white plates (Dynatech). The inhibitor or control solution was maintained in the plate for 10 minutes and the substrate was added to provide a final concentration of 4 uM.
(§6) In the absence of inhibitor activity, a fluorogenic peptide is cleaved at the gly-leu peptide bond, separating the highly fluorogenic peptide from a 2.4-dinitrophenyl quencher, resulting in an increase of fluorescence intensity (excitation at 328 nm/emmision at 415 nm). Inhibition was measured as a reduction in fluorescent intensity as a function of inhibitor concentration, using a Perkin Elmer L550 plate reader. The IC50 values were calculated from those values. The results are set forth in the Inhibition Table below, reported in terms of IC50 to three significant figures.

The target of experiment [2] is T2, recombinant human MMP-1 (Homo sapiens, UniProt P03956).
T2 construct: made in house; host or cells: transfected HT-1080 cells (provided by Dr. Howard Welgus, Washington University)
T2 sequence (P03956 100-469): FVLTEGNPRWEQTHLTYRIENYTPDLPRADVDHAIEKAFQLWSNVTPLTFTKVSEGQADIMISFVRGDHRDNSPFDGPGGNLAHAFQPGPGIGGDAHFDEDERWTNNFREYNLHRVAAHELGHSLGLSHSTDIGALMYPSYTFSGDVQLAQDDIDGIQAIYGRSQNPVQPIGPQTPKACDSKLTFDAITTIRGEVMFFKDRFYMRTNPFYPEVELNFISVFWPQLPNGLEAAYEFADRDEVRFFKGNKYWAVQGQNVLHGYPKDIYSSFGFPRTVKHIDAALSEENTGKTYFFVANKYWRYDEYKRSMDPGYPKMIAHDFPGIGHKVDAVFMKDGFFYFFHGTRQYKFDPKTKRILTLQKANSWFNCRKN
The experiment is described as follows: In vitro metalloprotease inhibition, fluorogenic peptide assay (MMP-1). In kind it is biochemical. The following applies: recombinant human MMP-1, APMA activated; fluorogenic MCA peptide substrate 4 uM; pH 7.5, room temperature. As for the experimental part: as §1, §2, §3, §4, §5, §6

For the molecule `COc1ccc(S(=O)(=O)N(Cc2ccccc2)C(CS)CC(C)C)cc1` (racemic) [Example 29F, N-[1-(Mercaptomethyl)-3-methylbutyl]-N-(phenylmethyl)-4-methoxybenzenesulfonamide], the IC50 in experiment [1] is 1800 nM; in experiment [2] it was 8000 nM.

`COc1ccc(S(=O)(=O)N(Cc2ccccc2)[C@H](C)CS)cc1` (racemic) [Example 56, N-(2-Mercapto-1R,S-methylethyl)-N-phenylmethyl-4-methoxybenzenesulfonamide benzenesulfonamide]: the figures for the IC50 in experiment [1] and in experiment [2] were 67.5 nM and 2000 nM, respectively.

As to `C[C@H](CS)NS(=O)(=O)c1ccccc1` (single isomer, unassigned) [Example 151], in experiment [1], the IC50 was > 10000 nM.

For the molecule `COc1ccc(S(=O)(=O)N(CCS)Cc2ccccc2)cc1` [Example 7C, N-(2-Mercaptoethyl)-N-(phenylmethyl)-4-methoxybenzenesulfonamide], the IC50 in experiment [1] worked out at 300 nM; in experiment [2], 4000 nM.

As for `CCCCCN(CCS)S(=O)(=O)c1ccc(OC)cc1` [Example 8, N-(2-Mercaptoethyl)-N-pentyl-4-methoxybenzenesulfonamide], the results for the IC50 in experiment [1] and in experiment [2] were 65 nM and 4200 nM, respectively.

`COc1ccc(S(=O)(=O)N(Cc2ccccc2)CC(C)S)cc1` (stereo not drawn) [Example 10]: the IC50 in experiment [1] amounted to 550 nM.

Turning to `COc1ccc(S(=O)(=O)N(C)[C@H](C)CS)cc1` [Example 11D, N-(2-Mercapto-1R-methylethyl)-N-methyl-4-methoxybenzenesulfonamide], the 50% inhibitory concentration (IC50) in experiment [1] is 32.5 nM; in experiment [2], 300 nM.

As for `COc1ccc(S(=O)(=O)N(Cc2ccccc2)[C@H](C)CS)cc1` [Example 12C, N-(2-Mercapto-1R-methylethyl)-N-(phenylmethyl)-4-methoxybenzenesulfonamide], the results for the 50% inhibitory concentration (IC50) in experiment [1] and in experiment [2] were 38.5 nM and 1300 nM, respectively.

As for `C[C@H](CS)NS(=O)(=O)c1ccc(Cl)cc1` [Example 64, N-(2-mercapto-1R-methylethyl)-4-chlorobenzenesulfonamide], in experiment [1], the half-inhibitory concentration (IC50) stood at 900 nM.

With `C[C@H](CS)NS(=O)(=O)c1ccc(I)cc1` [Example 66, N-(2-mercapto-1R-methylethyl)-4-iodobenzenesulfonamide], the half-inhibitory concentration (IC50) in experiment [1] is 38 nM.

For `CCc1ccc(S(=O)(=O)N[C@H](C)CS)cc1` [Example 67, N-(2-mercapto-1R-methylethyl)-4-ethylbenzenesulfonamide], the half-inhibitory concentration (IC50) in experiment [1] amounted to 570 nM.

Consider `CC(C)c1ccc(S(=O)(=O)N[C@H](C)CS)cc1` [Example 72, N-(2-mercapto-1R-methylethyl)-4-isopropylbenzenesulfonamide], for which, in experiment [1], the IC50 stood at 2300 nM.

On to `C[C@H](CS)NS(=O)(=O)c1ccc(C(F)(F)F)cc1` [Example 73, N-(2-mercapto-1R-methylethyl)-4-(trifluoromethyl)-benzenesulfonamide], for which the 50% inhibitory concentration (IC50) in experiment [1] was 2100 nM.

As for `C[C@H](CS)NS(=O)(=O)c1ccc(C(C)(C)C)cc1` [Example 74, N-(2-mercapto-1R-methylethyl)-4-(t-butyl)benzenesulfonamide], in experiment [1], the 50% inhibitory concentration (IC50) is > 10000 nM.

As for `Cc1cc(C)c(S(=O)(=O)N[C@H](C)CS)c(C)c1` [Example 79, N-(2-mercapto-1R-methylethyl)-2,4,6-trimethyl-benzenesulfonamide], in experiment [1], the IC50 was > 10000 nM.

On to `CC(C)c1cc(C(C)C)c(S(=O)(=O)N[C@H](C)CS)c(C(C)C)c1` [Example 80, N-(2-mercapto-1R-methylethyl)-2,4,6-triisopropyl-benzenesulfonamide], for which the concentration for half-maximal inhibition (IC50) in experiment [1] is > 10000 nM.

`C[C@H](CS)NS(=O)(=O)c1ccc(F)c(F)c1` [Example 81, N-(2-mercapto-1R-methylethyl)-3,4-difluoro-benzenesulfonamide]: the half-inhibitory concentration (IC50) in experiment [1] was found to be 6500 nM.

Take `C[C@H](CS)NS(=O)(=O)c1ccc(Br)s1` [Example 85, N-(2-mercapto-1R-methylethyl)-5-bromo-2-thiophenesulfonamide]: the IC50 in experiment [1] amounted to 9000 nM.

For the molecule `C[C@H](CS)NS(=O)(=O)c1ccc(Cl)s1` [Example 86, N-(2-mercapto-1R-methylethyl)-5-chloro-2-thiophenesulfonamide], in experiment [1], the 50% inhibitory concentration (IC50) turned out to be 1700 nM.

Regarding `C[C@H](CS)NS(=O)(=O)c1sc(Br)cc1Br` [Example 87, N-(2-mercapto-1R-methylethyl)-3,5-dibromo-2-thiophenesulfonamide], the half-inhibitory concentration (IC50) in experiment [1] was 8500 nM.

Consider `C[C@H](CS)NS(=O)(=O)c1ccc(-c2ccon2)s1` [Example 88, N-(2-mercapto-1R-methylethyl)-5-(isoxazol-3-yl)-2-thiophenesulfonamide], for which the IC50 in experiment [1] amounted to 365 nM.

For the molecule `C[C@H](CS)NS(=O)(=O)c1ccc2oc3ccccc3c2c1` [Example 90, N-(2-mercapto-1R-methylethyl)-2-dibenzofuransulfonamide], the IC50 in experiment [1] worked out at 600 nM.

In the case of `COc1ccc(S(=O)(=O)N(CCCS)Cc2ccccc2)cc1` [Example 97], the half-maximal inhibitory concentration (IC50) in experiment [1] is 4000 nM.

Regarding `COc1ccc(S(=O)(=O)N(CCCSC(C)=O)Cc2ccccc2)cc1` [Example 98], in experiment [1], the IC50 was > 10000 nM.

As to `C[C@H](CS)NS(=O)(=O)c1ccc(OCC(F)(F)F)cc1OCC(F)(F)F` [Example 104], in experiment [1], the concentration for half-maximal inhibition (IC50) is > 10000 nM.

Regarding `CCCCCCCCCCCCCCCCOc1ccc(S(=O)(=O)N[C@H](C)CS)cc1` [Example 105], the concentration for half-maximal inhibition (IC50) in experiment [1] worked out at 3500 nM.

Consider `C[C@H](CS)NS(=O)(=O)c1ccc(Oc2cccc(Cl)c2C#N)cc1` [Example 108], for which the IC50 in experiment [1] stood at 500 nM.

As to `COc1ccc(S(=O)(=O)N[C@H](C)CS)c([N+](=O)[O-])c1` [Example 109], the IC50 in experiment [1] is > 10000 nM.

For the molecule `C[C@H](CS)NS(=O)(=O)c1ccc(CNC(=O)c2ccccc2)s1` [Example 146], the IC50 in experiment [1] is > 10000 nM.

Turning to `C[C@H](CS)NS(=O)(=O)c1ccc(C(F)(F)F)cn1` [Example 148], in experiment [1], the IC50 was > 10000 nM.

On to `C[C@H](CS)NS(=O)(=O)c1cc(C(F)(F)F)n(C)n1` [Example 149], for which, in experiment [1], the IC50 was > 10000 nM.

`CSc1nccc(S(=O)(=O)N[C@H](C)CS)n1` [Example 150]: the IC50 in experiment [1] was 9000 nM.

For `C[C@H](CS)NS(=O)(=O)c1cc(Br)c(Cl)s1` [Example 152], the 50% inhibitory concentration (IC50) in experiment [1] came out at 3000 nM.

As for `C[C@H](CS)NS(=O)(=O)c1ccc(CNC(=O)c2ccc(Cl)cc2)s1` [Example 153], the IC50 in experiment [1] is > 10000 nM.

As for `CCc1cc(Br)ccc1S(=O)(=O)N[C@H](C)CS` [Example 195], in experiment [1], the 50% inhibitory concentration (IC50) stood at 464 nM.

Regarding `C[C@H](CS)NS(=O)(=O)c1ccccc1C(F)(F)F` [Example 196], the half-maximal inhibitory concentration (IC50) in experiment [1] was > 10000 nM.

Consider `COC(=O)c1ccccc1S(=O)(=O)N[C@H](C)CS` [Example 198], for which, in experiment [1], the concentration for half-maximal inhibition (IC50) came to 2300 nM.

On to `C[C@H](CS)NS(=O)(=O)c1ccc(Br)cc1OC(F)(F)F` [Example 204], for which, in experiment [1], the IC50 is > 10000 nM.

Take `C[C@H](CS)NS(=O)(=O)c1cccc2cccnc12` [Example 206]: in experiment [1], the IC50 was > 10000 nM.

With `CCCCOc1cc(C(C)(C)CC(C)(C)C)ccc1S(=O)(=O)N[C@H](C)CS` [Example 207], the IC50 in experiment [1] was > 10000 nM.

For `CCCCOc1ccc(S(=O)(=O)N[C@@H](CS)C(=O)O)cc1` [Example 210], the half-maximal inhibitory concentration (IC50) in experiment [1] is 1320 nM.

Consider `C[C@H](CS)NS(=O)(=O)c1cn(C)cn1` [Example 214], for which the concentration for half-maximal inhibition (IC50) in experiment [1] is > 10000 nM.

In the case of “N-(2-mercapto-1R-methylethyl)-2-(trifluoromethyoxy)-benzenesulfonamide [Example 77]”, the IC50 in experiment [1] is > 10000 nM.

Consider “N-(2-mercapto-1R-methylethyl)-2-napthylenesulfonamide [Example 83]”, for which the concentration for half-maximal inhibition (IC50) in experiment [1] was 1150 nM.

With “N-(2-mercapto-1R-methylethyl)-4-(n-butyl)benzenesulfonamide [Example 69]”, the IC50 in experiment [1] turned out to be 175 nM.
